Test results taken from PMC9050848, “Carbamoyl-N-aryl-imine-urea: a new framework to obtain a putative leishmanicidal drug-candidate” (RSC Advances, 2020).

Assay: Plasma stability (UPLC-MS/MS recovery)
Assay type: in vitro ADME
Conditions: 4 hours, 37 °C, rat plasma diluted 1:1 with PBS pH 7.4
Method: To investigate the potential plasma instability of the carbamoyl-N-arylimine-urea subunit, designed as a new peptide mimetic framework, compound 10e (LASSBio-1736) was selected to investigate its plasma stability,[21,22] previously to the evaluation of its in vivo leishmanicidal effect. Quantitation of 10e (LASSBio-1736), benzocaine standard (positive control; it means a substrate drug for plasma hydrolysis) and ketoconazole (internal standard) was determined by UPLC-MS/MS, after incubation of the compounds at 0, 30, 60, 120 and 240 min with rat plasma, and measuring the peak areas in three different experiments.
For analysis of plasma stability, 5 μL (250 ng mL^−1) of a concentrated solution of 10e (LASSBio-1736) or the positive control benzocaine (stock concentration = 10 000 ng mL^−1 solubilized in DMSO) was added in 195 μL of rat plasma solution (1 : 1) diluted with PBS (pH 7.4). […] The supernatant (400 μL) were placed in 2 mL vials, and analyzed by UPLC-MS/MS. […]
Detection in single reaction monitoring (SRM) mode was used for determination of the LASSBio-1736 (10e) m/z 419.1 → 205.0, benzocaine m/z 166.1 → 137.9 and ketoconazole (IS) 532.1 → 490.3, with a tolerance of mass deviation of 6 ppm, operating in positive ionization mode. The data were acquired using TraceFinder 3.2. software (Thermo Fisher Scientific, Waltham, USA), and analyzed using GraphPad Prism 5 program.

Q: With `O=C(N/N=C/c1ccc(C(F)(F)F)cc1)NNC(=O)c1ccc(Cl)cc1Cl` [LASSBio-1736 (10e), 2,4-dichloro-phenylcarbamoyl-N-4-trifluoromethylphenylimine-urea] as the molecule, how does the “Compound recovery after incubation with rat plasma” value read?
A: Its value is “completely recovered”.
